Laboratory results: ChEMBL document CHEMBL3046952, “Stereoselective synthesis of 2-amino-1-hydroxy-3-phenylpropylphosphonic acid” (1996)
Calls of active or inactive are those of the source. No cut-off for these calls is given here.

Key:
[1] = Inhibition of microsomal aminopeptidase
[2] = Inhibition of cytosolic aminopeptidase
Cucumis sativus [3] = assay: Inhibition of growth of Cucumis sativus (cucumber) hypocotyl at 1.5 mM relative to control; format: functional; conditions: read-out: GI
Cucumis sativus [4] = assay: Inhibition of growth of Cucumis sativus (cucumber) hypocotyl at 0.5 mM relative to control; format: functional; conditions: read-out: GI
Cucumis sativus [5] = assay: Inhibition of growth of Cucumis sativus (cucumber) hypocotyl at 0.15 mM relative to control; format: functional; conditions: read-out: GI
Cucumis sativus [6] = assay: Inhibition of growth of Cucumis sativus (cucumber) hypocotyl at 0.05 mM relative to control; format: functional; conditions: read-out: GI
Lepidium sativum [7] = assay: Inhibition of growth of Lepidium sativum hypocotyl at 0.15 mM relative to control; format: functional; conditions: read-out: GI
Lepidium sativum [8] = assay: Inhibition of growth of Lepidium sativum hypocotyl at 0.05 mM relative to control; format: functional; conditions: read-out: GI
Lepidium sativum [9] = assay: Inhibition of growth of Lepidium sativum root at 1.5 mM relative to control; format: functional; conditions: read-out: GI
Lepidium sativum [10] = assay: Inhibition of growth of Lepidium sativum root at 0.5 mM relative to control; format: functional; conditions: read-out: GI
Lepidium sativum [11] = assay: Inhibition of growth of Lepidium sativum root at 0.15 mM relative to control; format: functional; conditions: read-out: GI
Lepidium sativum [12] = assay: Inhibition of growth of Lepidium sativum root at 0.05 mM relative to control; format: functional; conditions: read-out: GI
Cucumis sativus [13] = assay: Inhibition of growth of Cucumis sativus (cucumber) root at 1.5 mM relative to control; format: functional; conditions: read-out: GI
Cucumis sativus [14] = assay: Inhibition of growth of Cucumis sativus (cucumber) root at 0.5 mM relative to control; format: functional; conditions: read-out: GI
Cucumis sativus [15] = assay: Inhibition of growth of Cucumis sativus (cucumber) root at 0.15 mM relative to control; format: functional; conditions: read-out: GI
Cucumis sativus [16] = assay: Inhibition of growth of Cucumis sativus (cucumber) root at 0.05 mM relative to control; format: functional; conditions: read-out: GI
Lepidium sativum [17] = assay: Inhibition of growth of Lepidium sativum hypocotyl at 1.5 mM relative to control; format: functional; conditions: read-out: GI
Lepidium sativum [18] = assay: Inhibition of growth of Lepidium sativum hypocotyl at 0.5 mM relative to control; format: functional; conditions: read-out: GI

## N[C@H](Cc1ccccc1)[C@@H](O)P(=O)(O)O (stereo in doubt)
[1]
  inhibition: inactive
[2]
  inhibition: inactive
Cucumis sativus [3]
  inhibition of growth at 1500 µM: 49%
Cucumis sativus [4]
  inhibition of growth at 500 µM: 37%
Cucumis sativus [5]
  inhibition of growth at 150 µM: 33%
Cucumis sativus [6]
  inhibition of growth at 50 µM: 23%
Lepidium sativum [7]
  inhibition of growth at 150 µM: 9%
Lepidium sativum [8]
  inhibition of growth at 50 µM: 16%
Lepidium sativum [9]
  inhibition of growth at 1500 µM: 88%
Lepidium sativum [10]
  inhibition of growth at 500 µM: 74%
Lepidium sativum [11]
  inhibition of growth at 150 µM: 66%
Lepidium sativum [12]
  inhibition of growth at 50 µM: 36%
Cucumis sativus [13]
  inhibition of growth at 1500 µM: 80%
Cucumis sativus [14]
  inhibition of growth at 500 µM: 73%
Cucumis sativus [15]
  inhibition of growth at 150 µM: 68%
Cucumis sativus [16]
  inhibition of growth at 50 µM: 51%
Lepidium sativum [17]
  inhibition of growth at 1500 µM: 54%

## O=C(O)CNCP(=O)(O)O [GLYPHOSATE]
Cucumis sativus [3]
  inhibition of growth at 1500 µM: 22%
Lepidium sativum [7]
  inhibition of growth at 150 µM: 16%
Lepidium sativum [8]
  inhibition of growth at 50 µM: 13%
Lepidium sativum [9]
  inhibition of growth at 1500 µM: 93%
Lepidium sativum [10]
  inhibition of growth at 500 µM: 90%
Lepidium sativum [11]
  inhibition of growth at 150 µM: 88%
Lepidium sativum [12]
  inhibition of growth at 50 µM: 86%
Cucumis sativus [13]
  inhibition of growth at 1500 µM: 84%
Cucumis sativus [14]
  inhibition of growth at 500 µM: 78%
Cucumis sativus [15]
  inhibition of growth at 150 µM: 71%
Cucumis sativus [16]
  inhibition of growth at 50 µM: 60%
Lepidium sativum [17]
  inhibition of growth at 1500 µM: 44%
Lepidium sativum [18]
  inhibition of growth at 500 µM: 20%

## N[C@@H](Cc1ccccc1)[C@H](O)P(=O)(O)O (stereo in doubt)
[1]
  inhibition: inactive
[2]
  inhibition: inactive
Cucumis sativus [3]
  inhibition of growth at 1500 µM: 64%
Cucumis sativus [4]
  inhibition of growth at 500 µM: 56%
Cucumis sativus [5]
  inhibition of growth at 150 µM: 45%
Cucumis sativus [6]
  inhibition of growth at 50 µM: 36%
Lepidium sativum [7]
  inhibition of growth at 150 µM: 46%
Lepidium sativum [8]
  inhibition of growth at 50 µM: 22%
Lepidium sativum [9]
  inhibition of growth at 1500 µM: 92%
Lepidium sativum [10]
  inhibition of growth at 500 µM: 87%
Lepidium sativum [11]
  inhibition of growth at 150 µM: 86%
Lepidium sativum [12]
  inhibition of growth at 50 µM: 82%
Cucumis sativus [13]
  inhibition of growth at 1500 µM: 83%
Cucumis sativus [14]
  inhibition of growth at 500 µM: 81%
Cucumis sativus [15]
  inhibition of growth at 150 µM: 75%
Cucumis sativus [16]
  inhibition of growth at 50 µM: 69%
Lepidium sativum [17]
  inhibition of growth at 1500 µM: 68%
Lepidium sativum [18]
  inhibition of growth at 500 µM: 64%
